{"source": "patent US12077503B2", "about": "“Substituted cyclic amides and their use as herbicides” (FMC CORPORATION, priority 2015, dated 2024)", "type_in_all_cases": "in vivo", "key": {"[1]": {"system": "pigweed (Amaranthus retroflexus)", "assay": "Test A preemergence"}, "[2]": {"system": "Kochia (Kochia scoparia)", "assay": "Test A preemergence", "summary_of_the_method": "(§1)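 Preemergence directed soil spray on seeded pots, or postemergence application to plants 2–10 cm, one- to two-leaf. Solvent mixture non-phytotoxic, with surfactant. Scored ~10 d later, visually, 0–100 vs untreated.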"}, "[3]": {"system": "giant foxtail (Setaria faberii)", "assay": "Test A preemergence", "summary_of_the_method": "as §1"}, "[4]": {"system": "ryegrass, Italian (Italian ryegrass, Lolium multiflorum)", "assay": "Test A preemergence", "summary_of_the_method": "as §1"}, "[5]": {"system": "ragweed (common ragweed, Ambrosia elatior)", "assay": "Test A preemergence", "summary_of_the_method": "as §1"}, "[6]": {"system": "barnyardgrass (Echinochloa crus-galli)", "assay": "Test A preemergence", "summary_of_the_method": "as §1"}, "[7]": {"system": "blackgrass (Alopecurus myosuroides)", "assay": "Test A postemergence", "conditions": "postemergence", "summary_of_the_method": "as §1"}, "[8]": {"system": "pigweed (Amaranthus retroflexus)", "assay": "Test A postemergence", "conditions": "postemergence", "summary_of_the_method": "as §1"}, "[9]": {"system": "Kochia (Kochia scoparia)", "assay": "Test A postemergence", "conditions": "postemergence", "summary_of_the_method": "as §1"}, "[10]": {"system": "giant foxtail (Setaria faberii)", "assay": "Test A postemergence", "conditions": "postemergence", "summary_of_the_method": "as §1"}, "[11]": {"system": "ryegrass, Italian (Italian ryegrass, Lolium multiflorum)", "assay": "Test A postemergence", "conditions": "postemergence", "summary_of_the_method": "as §1"}, "[12]": {"system": "wheat (Triticum aestivum)", "assay": "Test A postemergence", "conditions": "postemergence", "summary_of_the_method": "as §1"}, "[13]": {"system": "Galium (catchweed bedstraw, Galium aparine)", "assay": "Test A postemergence", "conditions": "postemergence", "summary_of_the_method": "as §1"}, "[14]": {"system": "ragweed (common ragweed, Ambrosia elatior)", "assay": "Test A postemergence", "conditions": "postemergence", "summary_of_the_method": "as §1"}, "[15]": {"system": "barnyardgrass (Echinochloa crus-galli)", "assay": "Test A postemergence", "conditions": "postemergence", "summary_of_the_method": "as §1"}, "[16]": {"system": "corn (Zea mays)", "assay": "Test A postemergence", "conditions": "postemergence", "summary_of_the_method": "as §1"}, "[17]": {"system": "sedge, umbrella (small-flower umbrella sedge, Cyperus difformis)", "assay": "Test B flooded paddy test", "conditions": "Flood, 250 g ai/ha; 0 to 100 scale where 0 is no effect and 100 is complete control; 13 to 15 d", "summary_of_the_method": "(§2)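 Flooding to 3 cm over soil accompanied treatment, which consisted of adding compound to the standing water around 2-leaf plants; depth was then maintained. Visual assessment versus controls followed at 13 to 15 d (scale 0–100, 0 meaning no effect).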"}, "[18]": {"system": "rice (Oryra sativa)", "assay": "Test B flooded paddy test", "conditions": "Flood, 250 g ai/ha; 0 to 100 scale where 0 is no effect and 100 is complete control; 13 to 15 d", "summary_of_the_method": "as §2"}, "[19]": {"system": "ducksalad (Heteranthera limosa)", "assay": "Test B flooded paddy test", "conditions": "Flood, 250 g ai/ha; 0 to 100 scale where 0 is no effect and 100 is complete control; 13 to 15 d", "summary_of_the_method": "as §2"}, "[20]": {"system": "barnyardgrass (Echinochloa crus-galli)", "assay": "Test B flooded paddy test", "conditions": "Flood, 250 g ai/ha; 0 to 100 scale where 0 is no effect and 100 is complete control; 13 to 15 d", "summary_of_the_method": "as §2"}, "[21]": {"conditions": "125 g ai/ha, preemergence, 0 to 100 scale (0 no effect, 100 complete control)"}, "[22]": {"conditions": "Preemergence, 500 g ai/ha, visual injury approx. 10 d"}, "[23]": {"conditions": "125 g ai/ha, visual injury rating on 0 to 100 scale (0 no effect, 100 complete control), approx. 10 d"}, "[24]": {"conditions": "500 g ai/ha, 0 to 100 scale, 0 no effect, 100 complete control"}}, "data": [{"compound": "CN1CC(c2ccc(Cl)cc2)C(C(=O)Nc2ccccc2S(C)(=O)=O)C1=O", "note": "(stereo not drawn) [Compound 435]", "values": [{"measurement": "Plant response rating, Pigweed", "setting": "[1]; [21]", "value": 60}, {"measurement": "Pigweed plant response rating (0 to 100 scale, 0 is no effect, 100 is complete control)", "setting": "[1]; [22]", "value": 80}, {"measurement": "Plant response rating, Kochia", "setting": "[2]; [21]", "value": 60}, {"measurement": "Kochia plant response rating (0 to 100 scale, 0 is no effect, 100 is complete control)", "setting": "[2]; [22]", "value": 80}, {"measurement": "Plant response rating, Foxtail, Giant", "setting": "[3]; [21]", "value": 90}, {"measurement": "Foxtail, Giant plant response rating (0 to 100 scale, 0 is no effect, 100 is complete control)", "setting": "[3]; [22]", "value": 90}, {"measurement": "Plant response rating, Ryegrass, Italian", "setting": "[4]; [21]", "value": 0}, {"measurement": "Ryegrass, Italian plant response rating (0 to 100 scale, 0 is no effect, 100 is complete control)", "setting": "[4]; [22]", "value": 20}, {"measurement": "Plant response rating, Ragweed", "setting": "[5]; [21]", "value": 20}, {"measurement": "Ragweed plant response rating (0 to 100 scale, 0 is no effect, 100 is complete control)", "setting": "[5]; [22]", "value": 70}, {"measurement": "Plant response rating, Barnyardgrass", "setting": "[6]; [21]", "value": 80}, {"measurement": "Barnyardgrass plant response rating (0 to 100 scale, 0 is no effect, 100 is complete control)", "setting": "[6]; [22]", "value": 90}, {"measurement": "Blackgrass plant response rating", "setting": "[7]; [23]", "value": 30}, {"measurement": "Plant response rating, Blackgrass", "setting": "[7]; [24]", "value": 50}, {"measurement": "Pigweed plant response rating", "setting": "[8]; [23]", "value": 20}, {"measurement": "Plant response rating, Pigweed", "setting": "[8]; [24]", "value": 50}, {"measurement": "Kochia plant response rating", "setting": "[9]; [23]", "value": 20}, {"measurement": "Plant response rating, Kochia", "setting": "[9]; [24]", "value": 50}, {"measurement": "Foxtail, Giant plant response rating", "setting": "[10]; [23]", "value": 80}, {"measurement": "Plant response rating, Foxtail, Giant", "setting": "[10]; [24]", "value": 80}, {"measurement": "Ryegrass, Italian plant response rating", "setting": "[11]; [23]", "value": 40}, {"measurement": "Plant response rating, Ryegrass, Italian", "setting": "[11]; [24]", "value": 40}, {"measurement": "Wheat plant response rating", "setting": "[12]; [23]", "value": 0}, {"measurement": "Plant response rating, Wheat", "setting": "[12]; [24]", "value": 60}, {"measurement": "Galium plant response rating", "setting": "[13]; [23]", "value": 50}, {"measurement": "Plant response rating, Galium", "setting": "[13]; [24]", "value": 60}, {"measurement": "Ragweed plant response rating", "setting": "[14]; [23]", "value": 40}, {"measurement": "Plant response rating, Ragweed", "setting": "[14]; [24]", "value": 60}, {"measurement": "Barnyardgrass plant response rating", "setting": "[15]; [23]", "value": 80}, {"measurement": "Plant response rating, Barnyardgrass", "setting": "[15]; [24]", "value": 90}, {"measurement": "Corn plant response rating", "setting": "[16]; [23]", "value": 0}, {"measurement": "Plant response rating, Corn", "setting": "[16]; [24]", "value": 20}, {"measurement": "Plant response rating, Sedge, Umbrella", "setting": "[17]", "value": 0}, {"measurement": "Plant response rating, Rice", "setting": "[18]", "value": 0}, {"measurement": "Plant response rating, Ducksalad", "setting": "[19]", "value": 90}, {"measurement": "Plant response rating, Barnyardgrass", "setting": "[20]", "value": 60}]}]}
